Measurements published in ChEMBL document CHEMBL3885881, “DrugMatrix”.

Species on record: Rattus norvegicus
Assay: DrugMatrix - Regimen: Daily Repeat
Assay type: toxicity, organism-based, Sprague-Dawley
Design: regimen Daily Repeat, gender Male, age 6-8 weeks
Details: in vivo, po, route oral GAVAGE, vehicle .5 % CMC; for CARBON DIOXIDE / CHLORIDE / CHOLESTEROL / CREATINE PHOSPHOKINASE / CREATININE / GLUCOSE / LACTATE DEHYDROGENASE / LIPASE / PHOSPHORUS / POTASSIUM / SODIUM / TOTAL BILIRUBIN / TOTAL PROTEIN / URIC ACID / ALANINE AMINOTRANSFERASE / ALBUMIN / ALKALINE PHOSPHATASE / ASPARTATE AMINOTRANSFERASE / BLOOD UREA NITROGEN: tissue Plasma; for ABSOLUTE BASOPHIL / ABSOLUTE EOSINOPHIL / ABSOLUTE LYMPHOCYTE / ABSOLUTE MONOCYTE / ABSOLUTE SEGMENTED NEUTROPHIL / BASOPHIL / EOSINOPHIL / ERYTHROCYTE COUNT / HEMATOCRIT / HEMOGLOBIN / LEUKOCYTE COUNT / LYMPHOCYTE / MEAN CORPUSCULAR HEMOGLOBIN / MEAN CORPUSCULAR HEMOGLOBIN CONCENTRATION / MEAN CORPUSCULAR VOLUME / MONOCYTE / NEUTROPHIL / NUCLEATED RED BLOOD CELLS / PLATELET COUNT: tissue Blood
[1] = 7 mg/kg, 120 h, dose level Low, time 5 day
[2] = 70 mg/kg, 72 h, dose level High, time 3 day
[3] = 70 mg/kg, 120 h, dose level High, time 5 day
[4] = 140 mg/kg, 72 h, dose level Low, time 3 day

NC1=NC(=O)C(c2ccccc2)O1 (configuration not stated) [PEMOLINE]
CARBON DIOXIDE [1]: 34.67 mmol/L | CHLORIDE [1]: 103 MEQ/L | CHOLESTEROL [1]: 67.67 mg/dL | CREATINE PHOSPHOKINASE [1]: 147.33 u/L | CREATININE [1]: 0.12 mg/dL | GLUCOSE [1]: 151.67 mg/dL | LACTATE DEHYDROGENASE [1]: 92.33 u/L | LIPASE [1]: 9 u/L | PHOSPHORUS [1]: 13.57 mg/dL | POTASSIUM [1]: 6.78 MEQ/L | SODIUM [1]: 146.93 MEQ/L | TOTAL BILIRUBIN [1]: 0.17 mg/dL | TOTAL PROTEIN [1]: 5.77 G/DL | URIC ACID [1]: 1.33 mg/dL | ABSOLUTE BASOPHIL [2]: 0 CELLS/uL | ABSOLUTE EOSINOPHIL [2]: 0 CELLS/uL | ABSOLUTE LYMPHOCYTE [2]: 14699.33 CELLS/uL | ABSOLUTE MONOCYTE [2]: 90.67 CELLS/uL | ABSOLUTE SEGMENTED NEUTROPHIL [2]: 1243.33 CELLS/uL | BASOPHIL [2]: 0% | EOSINOPHIL [2]: 0% | ERYTHROCYTE COUNT [2]: 5.56 x10E6/uL | HEMATOCRIT [2]: 35.23% | HEMOGLOBIN [2]: 14.27 G/DL | LEUKOCYTE COUNT [2]: 16.03 x10E3/uL | LYMPHOCYTE [2]: 91.33% | MEAN CORPUSCULAR HEMOGLOBIN [2]: 25.7 pg | MEAN CORPUSCULAR HEMOGLOBIN CONCENTRATION [2]: 40.47 G/DL | MEAN CORPUSCULAR VOLUME [2]: 63.43 fL | MONOCYTE [2]: 0.67% | NEUTROPHIL [2]: 8% | NUCLEATED RED BLOOD CELLS [2]: 0 /100WBC | PLATELET COUNT [2]: 1042 x10E3/uL | ALANINE AMINOTRANSFERASE [2]: 48 u/L | ALBUMIN [2]: 4.17 G/DL | ALKALINE PHOSPHATASE [2]: 389 u/L | ASPARTATE AMINOTRANSFERASE [2]: 92.67 u/L | BLOOD UREA NITROGEN [2]: 15.33 mg/dL | CARBON DIOXIDE [2]: 33 mmol/L | CHLORIDE [2]: 100.67 MEQ/L | CHOLESTEROL [2]: 58.33 mg/dL | CREATINE PHOSPHOKINASE [2]: 270 u/L | CREATININE [2]: 0.15 mg/dL | GLUCOSE [2]: 154 mg/dL | LACTATE DEHYDROGENASE [2]: 211.33 u/L | LIPASE [2]: 8.67 u/L | PHOSPHORUS [2]: 13.6 mg/dL | POTASSIUM [2]: 6.81 MEQ/L | SODIUM [2]: 144.87 MEQ/L | TOTAL BILIRUBIN [2]: 0.1 mg/dL | TOTAL PROTEIN [2]: 5.8 G/DL | URIC ACID [2]: 1.6 mg/dL | ABSOLUTE BASOPHIL [3]: 0 CELLS/uL | ABSOLUTE EOSINOPHIL [3]: 0 CELLS/uL | ABSOLUTE LYMPHOCYTE [3]: 16458 CELLS/uL | ABSOLUTE MONOCYTE [3]: 255.33 CELLS/uL | ABSOLUTE SEGMENTED NEUTROPHIL [3]: 886.67 CELLS/uL | BASOPHIL [3]: 0% | EOSINOPHIL [3]: 0% | ERYTHROCYTE COUNT [3]: 5.79 x10E6/uL | HEMATOCRIT [3]: 36.57% | HEMOGLOBIN [3]: 14.87 G/DL | LEUKOCYTE COUNT [3]: 17.6 x10E3/uL | LYMPHOCYTE [3]: 93% | MEAN CORPUSCULAR HEMOGLOBIN [3]: 25.7 pg | MEAN CORPUSCULAR HEMOGLOBIN CONCENTRATION [3]: 40.63 G/DL | MEAN CORPUSCULAR VOLUME [3]: 63.23 fL | MONOCYTE [3]: 1.67% | NEUTROPHIL [3]: 5.33% | NUCLEATED RED BLOOD CELLS [3]: 0.33 /100WBC | PLATELET COUNT [3]: 1251.67 x10E3/uL | ALANINE AMINOTRANSFERASE [3]: 59.67 u/L | ALBUMIN [3]: 4.33 G/DL | ALKALINE PHOSPHATASE [3]: 378.67 u/L | ASPARTATE AMINOTRANSFERASE [3]: 96.33 u/L | BLOOD UREA NITROGEN [3]: 18.67 mg/dL | CARBON DIOXIDE [3]: 33.33 mmol/L | CHLORIDE [3]: 100.33 MEQ/L | CHOLESTEROL [3]: 64 mg/dL | CREATINE PHOSPHOKINASE [3]: 276.33 u/L | CREATININE [3]: 0.23 mg/dL | GLUCOSE [3]: 139 mg/dL | LACTATE DEHYDROGENASE [3]: 306.33 u/L | LIPASE [3]: 10.67 u/L | PHOSPHORUS [3]: 12.97 mg/dL | POTASSIUM [3]: 6.82 MEQ/L | SODIUM [3]: 144.9 MEQ/L | TOTAL BILIRUBIN [3]: 0.2 mg/dL | TOTAL PROTEIN [3]: 6.03 G/DL | URIC ACID [3]: 1.9 mg/dL | BASOPHIL [4]: 0% | EOSINOPHIL [4]: 1% | ERYTHROCYTE COUNT [4]: 6.27 x10E6/uL | HEMATOCRIT [4]: 38.3% | HEMOGLOBIN [4]: 14.3 G/DL | LEUKOCYTE COUNT [4]: 13.1 x10E3/uL | LYMPHOCYTE [4]: 92% | MEAN CORPUSCULAR HEMOGLOBIN [4]: 22.8 pg | MEAN CORPUSCULAR HEMOGLOBIN CONCENTRATION [4]: 37.3 G/DL | MEAN CORPUSCULAR VOLUME [4]: 61.1 fL | MONOCYTE [4]: 1% | NEUTROPHIL [4]: 6% | PLATELET COUNT [4]: 1285 x10E3/uL | ALANINE AMINOTRANSFERASE [4]: 34.5 u/L | ALBUMIN [4]: 3.25 G/DL | ALKALINE PHOSPHATASE [4]: 286.5 u/L | ASPARTATE AMINOTRANSFERASE [4]: 93.5 u/L | BLOOD UREA NITROGEN [4]: 15.5 mg/dL | CHLORIDE [4]: 105.5 MEQ/L | CHOLESTEROL [4]: 58.5 mg/dL | CREATINE PHOSPHOKINASE [4]: 130 u/L | CREATININE [4]: 0.75 mg/dL | GLUCOSE [4]: 137.5 mg/dL | PHOSPHORUS [4]: 12.65 mg/dL | POTASSIUM [4]: 7.95 MEQ/L | SODIUM [4]: 148 MEQ/L | TOTAL PROTEIN [4]: 5.3 G/DL
